{
  "source": "patent US8207211B2",
  "about": "“Photosensitizers for targeted photodynamic therapy” (The General Hospital Corporation, priority 2005, dated 2012)",
  "key": {"[1]": {"system": "S. aureus", "experiment": "Photodynamic inactivation (PDI), CFU survival, white light (red light for TBO)", "assay_type": "cell-based, Staphylococcus aureus", "conditions": "1 μM"}, "[2]": {"system": "P. aeruginosa", "experiment": "Photodynamic inactivation (PDI), CFU survival, 405-nm light (Example 8)", "assay_type": "cell-based, Pseudomonas aeruginosa", "from_the_text": "(§1) Four microbial species were used in this study. Briefly, Escherichia coli was purchased from ATCC (ATCC #25922), Pseudomonas aeruginosa, two clinical isolates, were obtained; UCBP PA 14 from L. Rahme (Massachusetts General Hospital) and PA 767K from Kim Lewis (Tufts University), slime deficient mutant of Staphylococcus aureus was obtained from Gerald B Pier (Channing Laboratories). Yeast strain Candida albicans was purchased from ATCC (ATCC #18804). Exponential cultures obtained by reculturing stationary overnight cultures were used for all experiments. Bacteria were grown at 37° C. in BHI broth to a cell density of 10^8 cells per mL. C. albicans was grown 37° C. in YM medium to 10^7 cells/mL.\n(§2) Six fullerene derivatives (NI1-3 and CI1-3) were evaluated. […] Concentration of fullerene derivatives used in the experiments varied between 1 and 100 μM.\n(§3) Fullerene derivatives were mixed with microbial suspensions and incubated in the dark at room temperature for 10 minutes. Excess fullerenes were either washed out of, or left in, the suspensions before illumination. […]\n(§4) During illumination, aliquots of 20 μL were taken to determine the colony-forming units. […] Colonies were counted and survival fraction was determined as percent of survival compared to control. […]"}, "[3]": {"system": "C. albicans", "experiment": "Photodynamic inactivation (PDI), CFU survival, white light (red light for TBO)", "assay_type": "cell-based, Candida albicans", "conditions": "10 μM, 10 min", "method": "(§5) Staphylococcus aureus (ATCC #35556), Escherichia coli (ATCC #25922), and Pseudomonas aeruginosa (ATCC #BAA-47; PAO1) were cultured in brain-heart infusion (BHI) broth (Difco, BD Diagnosttic Systems, Sparks, Md.) at 37° C. in aerobic conditions in a shaker at 150 rpm. Candida albicans (ATCC #18804) is grown in YM broth (Difco). Exponential cultures obtained by reculturing stationary overnight precultures were used for experiments.\n(§6) E. coli, P. aeruginosa, and S. aureus are grown in fresh medium for approximately 1 hr to a density of about 10^8 cells/ml; the OD values at 650 nm are 0.6, 0.8, and 0.8, respectively. C. albicans is grown for approximately 4 hr to an approximate density of 10^8 cells/ml, corresponding to an OD of 6 at 650 nm (measured at 10-fold dilution). Cells were used for experiments in the mid-log growth phase.\n(§7) A noncoherent lamp with filtered liquid light guides, e.g., a LumaCare™ LC122 lamp (MBG Technologies, Inc., Newport Beach, Calif.) was used to provide illumination of PS. More specifically, for illumination of fullerenes, a broad-band white light band pass filter (400-700 nm) was used, whereas for TBO, a band pass filter at 620-650 nm was used. The lamp was adjusted to give a uniform spot of about 4 cm diameter with an irradiance of 200 mW/cm^2, as measured with a power meter, e.g., a model DMM 199 meter with 201 Standard head (Coherent, Santa Clara, Calif.).\n(§8) Typically, derivatized fullerenes prepared as described above are dissolved in DMSO to provide stock solutions having final concentrations of about 5 mM. […] All stock solutions were stored in the dark at room temperature.\n(§9) In some experiments, for example in studies described in Examples below, suspensions of S. aureus cells (10^8 per ml) were incubated with derivatized fullerenes such as NI-1-3 and CI1-3 at a concentration of 100 μM in PBS at room temperature for 10 min. In other experiments, the bacterial suspension was centrifuged (4000×g for 10 min) after incubation and resuspended in fresh PBS before illumination; the latter procedure was referred to herein as a “wash.” E. coli, P. aeruginosa, and C. albicans were used at concentrations of about 10^8 cells per ml.\n(§10) Illumination was carried out from above on microbial cell suspensions in wells of a 24-well plate. Aliquots were removed at times corresponding to the delivery of calculated fluences of light, and were serially diluted in PBS and streaked on square BHI or YM agar plates according to the method of Jett et al. (Jett, B. D., Hatter, K. L., Huycke, M. M., and Gilmore, M. S. (1997). Simplified agar plate method for quantifying viable bacteria. Biotechniques 23, 648-650). Survival fractions were calculated with reference to cells incubated in PBS alone. Values on killing curves at 0 J/cm^2 represent the dark toxicity of the fullerenes or other PS tested. Control cells were treated with light and no PS and also analyzed for viability."}, "[4]": {"system": "C. albicans", "experiment": "Photodynamic inactivation (PDI), CFU survival, 405-nm light (Example 8)", "assay_type": "cell-based, Candida albicans", "conditions": "10-20 μM, 16 J/cm^2 of 405-nm light", "from_the_text": "as §1, §2, §3, §4"}, "[5]": {"system": "E. coli", "experiment": "Photodynamic inactivation (PDI), CFU survival, white light (red light for TBO)", "assay_type": "cell-based, Escherichia coli", "conditions": "10 μM", "method": "as §5, §6, §7, §8, §9, §10"}, "[6]": {"system": "E. coli", "experiment": "Photodynamic inactivation (PDI), CFU survival, 405-nm light (Example 8)", "assay_type": "cell-based, Escherichia coli", "conditions": "10-20 μM, 16 J/cm^2 of 405-nm light", "from_the_text": "as §1, §2, §3, §4"}, "[7]": {"conditions": "10 min, white light up to 50 J/cm^2"}},
  "data": [
    {"smiles": "C[N+]1(C)Cc2c(c3c4ccc5c6ccc7c8ccc9c%10c%11c%12c(c2c2c3c3c4c5c4c6c7c5c8c9c%11c6c(c%122)c3c4c56)C2C[N+](C)(C)CC%102)C1", "note": "(centres unmarked) [CI2]", "values": [
      {"measurement": "PDT activity against S. aureus", "setting": "[1]; [7]", "value": "effectively killed"},
      {"measurement": "light sufficient to kill 4-5 logs of S. aureus", "setting": "[1]; with a wash, white light", "value": 2, "unit": "J/cm^2"},
      {"measurement": "killing of P. aeruginosa", "setting": "[2]; 10-20 μM, 16 J/cm^2 of 405-nm light", "value": "high levels of killing"},
      {"measurement": "effect of a wash on killing of P. aeruginosa", "setting": "[2]; illumination with versus without a wash, 405 nm", "value": "more killing after a wash"},
      {"measurement": "PDT activity against C. albicans", "setting": "[3]; white light up to 50 J/cm^2", "value": "effectively killed"},
      {"measurement": "relative effectiveness in killing C. albicans", "setting": "[3]; with a wash, white light", "value": "much better than CI1"},
      {"measurement": "killing of C. albicans", "setting": "[4]", "value": "high levels of killing"},
      {"measurement": "change of E. coli killing in the presence of serum versus no serum", "setting": "[5]; 10 min, 10% FBS, with a wash, white light", "value": "about 1 log"},
      {"measurement": "PDT activity against E. coli", "setting": "[5]; [7]", "value": "effectively killed"},
      {"measurement": "killing of E. coli", "setting": "[5]; with a wash, 2 J/cm^2 white light", "value": 4, "unit": "logs"},
      {"measurement": "killing of E. coli", "setting": "[6]", "value": "high levels of killing"}
    ]}
  ]
}
